Data on eight compounds can be found in ChEMBL document CHEMBL3813654, “De Novo Design at the Edge of Chaos” (J Med Chem, 2016).

One test concerns the target Protease (Human immunodeficiency virus 1, UniProt Q9YQ12). The experiment in a line: Inhibition of HIV1 protease.
The next test concerns the target Procathepsin L (Homo sapiens, UniProt P07711). The experiment in a line: Activation of human liver cathepsin L using Z-FR-AMC as substrate measured for 120 mins by fluorescence assay.
A further test addresses Estrogen receptor beta (Homo sapiens, UniProt Q92731). Put plainly: Displacement of [3H]-17beta-estradiol from human recombinant ERbeta expressed in rabbit reticulocytes. The test is classed as cell-based.
Another test concerns the target T1, Estrogen receptor (Homo sapiens, UniProt P03372).
T1 sequence (P03372 whole entry): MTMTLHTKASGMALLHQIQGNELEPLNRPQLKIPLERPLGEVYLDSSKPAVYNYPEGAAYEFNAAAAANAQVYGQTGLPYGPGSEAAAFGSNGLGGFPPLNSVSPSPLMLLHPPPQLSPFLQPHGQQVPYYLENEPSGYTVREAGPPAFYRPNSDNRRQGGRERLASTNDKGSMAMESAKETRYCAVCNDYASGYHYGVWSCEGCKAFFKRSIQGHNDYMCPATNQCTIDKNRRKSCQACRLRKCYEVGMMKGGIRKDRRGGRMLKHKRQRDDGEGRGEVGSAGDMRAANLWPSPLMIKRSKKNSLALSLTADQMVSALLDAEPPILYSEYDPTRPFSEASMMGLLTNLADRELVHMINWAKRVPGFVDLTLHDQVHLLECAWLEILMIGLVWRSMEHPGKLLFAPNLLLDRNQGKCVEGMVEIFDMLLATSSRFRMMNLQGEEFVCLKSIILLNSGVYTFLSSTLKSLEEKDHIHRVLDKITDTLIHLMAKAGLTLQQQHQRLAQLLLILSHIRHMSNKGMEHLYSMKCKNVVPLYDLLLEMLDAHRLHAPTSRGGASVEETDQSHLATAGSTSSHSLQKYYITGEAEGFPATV
Put plainly: Displacement of [3H]-17beta-estradiol from human recombinant ERalpha expressed in rabbit reticulocytes. It counts as cell-based. On the technique in general: Displacement assays read how much labelled ligand stays bound in the presence of the test substance.

The target in test [1] is Serine/threonine-protein kinase PLK1 (Homo sapiens, UniProt P53350). Put plainly: Inhibition of inactivated PLK1 in human HeLa cells using casein as substrate by immunoprecipitation assay. The test is classed as cell-based.
Sequence of Serine/threonine-protein kinase PLK1 (P53350 whole entry, the tested form may be a part): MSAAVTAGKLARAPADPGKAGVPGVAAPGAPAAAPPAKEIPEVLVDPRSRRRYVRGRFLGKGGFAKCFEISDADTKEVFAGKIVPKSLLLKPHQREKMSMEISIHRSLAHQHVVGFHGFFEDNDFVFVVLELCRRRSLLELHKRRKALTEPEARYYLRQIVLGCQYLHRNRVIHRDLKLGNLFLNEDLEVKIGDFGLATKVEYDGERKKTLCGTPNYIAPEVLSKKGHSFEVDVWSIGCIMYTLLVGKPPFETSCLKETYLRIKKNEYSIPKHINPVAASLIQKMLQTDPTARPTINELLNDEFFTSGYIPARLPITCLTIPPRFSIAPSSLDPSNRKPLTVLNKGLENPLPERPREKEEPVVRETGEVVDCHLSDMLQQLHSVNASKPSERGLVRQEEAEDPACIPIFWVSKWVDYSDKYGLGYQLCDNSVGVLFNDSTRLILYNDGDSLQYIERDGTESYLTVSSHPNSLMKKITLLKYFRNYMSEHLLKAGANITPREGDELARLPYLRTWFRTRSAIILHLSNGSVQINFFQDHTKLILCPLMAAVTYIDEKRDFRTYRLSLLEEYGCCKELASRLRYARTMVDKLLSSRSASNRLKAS
The next test addresses Collagenase 3 (Homo sapiens, UniProt P45452). The experiment in a line: Inhibition of human recombinant MMP13 (85 to 255 residues) expressed in Escherichia coli using 5-FAM/QXLTM as substrate by fluorometric assay.
Test [2] concerns the target cGMP-inhibited 3',5'-cyclic phosphodiesterase 3B (Homo sapiens, UniProt Q13370). Put plainly: Inhibition of human recombinant PDE3B expressed in insect Sf9 cells assessed as residual cAMP level after 30 mins by HTRF assay. Background: Changes in cAMP serve as a functional read-out for many G protein-coupled receptors.
The next test concerns the target MAP kinase p38 (Homo sapiens, UniProt O15264+Q15759+Q16539+P53778). Put plainly: Inhibition of human P38 expressed in yeast using T669 as substrate preincubated for 30 mins followed by [gamma-32P]Mg/ATP addition measured after 25 mins by beta scintillation counting method.
Test [3] concerns the target Cyclin-dependent kinase 4/cyclin D2 (Homo sapiens, UniProt P11802+P30279). The experiment in a line: Inhibition of human recombinant CDK4/Cyclin D2 expressed in baculovirus infected insect Sf9 cells using G1 peptide as substrate after 45 mins by Top Count method in presence of [33P]-ATP.

Sequence of Protease (Q9YQ12 whole entry): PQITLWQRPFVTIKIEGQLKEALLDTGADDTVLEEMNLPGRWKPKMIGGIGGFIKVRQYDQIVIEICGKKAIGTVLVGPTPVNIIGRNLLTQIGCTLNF
Sequence of Estrogen receptor beta (Q92731 whole entry): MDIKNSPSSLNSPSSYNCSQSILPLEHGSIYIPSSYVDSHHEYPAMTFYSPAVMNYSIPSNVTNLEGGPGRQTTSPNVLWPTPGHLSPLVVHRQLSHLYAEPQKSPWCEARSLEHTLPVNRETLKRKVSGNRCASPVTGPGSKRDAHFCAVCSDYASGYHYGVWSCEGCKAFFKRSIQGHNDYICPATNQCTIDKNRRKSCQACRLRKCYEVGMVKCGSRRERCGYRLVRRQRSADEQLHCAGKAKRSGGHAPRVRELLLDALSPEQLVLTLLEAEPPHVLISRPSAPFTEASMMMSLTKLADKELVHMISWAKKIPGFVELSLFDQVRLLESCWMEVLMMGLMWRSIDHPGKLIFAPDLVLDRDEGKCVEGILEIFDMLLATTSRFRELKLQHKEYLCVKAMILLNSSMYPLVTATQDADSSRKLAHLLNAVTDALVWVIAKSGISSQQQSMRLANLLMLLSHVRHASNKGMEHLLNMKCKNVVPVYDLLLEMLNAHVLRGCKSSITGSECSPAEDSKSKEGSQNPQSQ
Sequence of Cyclin-dependent kinase 4/cyclin D2 (P11802 whole entry): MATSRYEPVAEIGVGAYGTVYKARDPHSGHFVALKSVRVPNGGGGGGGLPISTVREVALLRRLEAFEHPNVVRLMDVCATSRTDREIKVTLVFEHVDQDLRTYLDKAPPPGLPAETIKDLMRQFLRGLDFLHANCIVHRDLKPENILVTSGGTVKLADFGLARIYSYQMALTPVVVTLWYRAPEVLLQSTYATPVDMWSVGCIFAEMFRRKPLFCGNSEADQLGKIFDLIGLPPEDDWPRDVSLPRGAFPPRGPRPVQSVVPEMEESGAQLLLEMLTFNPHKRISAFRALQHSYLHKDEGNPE
Sequence of Cyclin-dependent kinase 4/cyclin D2 (P30279 whole entry): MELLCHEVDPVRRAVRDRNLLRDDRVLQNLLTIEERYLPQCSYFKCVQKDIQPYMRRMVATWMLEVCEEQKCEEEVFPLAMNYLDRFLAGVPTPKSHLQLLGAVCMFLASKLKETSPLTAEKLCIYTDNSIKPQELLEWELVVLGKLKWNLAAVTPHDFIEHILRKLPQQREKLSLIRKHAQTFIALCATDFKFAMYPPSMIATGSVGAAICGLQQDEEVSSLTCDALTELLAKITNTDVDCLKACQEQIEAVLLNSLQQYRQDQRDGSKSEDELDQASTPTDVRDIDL
Sequence of cGMP-inhibited 3',5'-cyclic phosphodiesterase 3B (Q13370 whole entry): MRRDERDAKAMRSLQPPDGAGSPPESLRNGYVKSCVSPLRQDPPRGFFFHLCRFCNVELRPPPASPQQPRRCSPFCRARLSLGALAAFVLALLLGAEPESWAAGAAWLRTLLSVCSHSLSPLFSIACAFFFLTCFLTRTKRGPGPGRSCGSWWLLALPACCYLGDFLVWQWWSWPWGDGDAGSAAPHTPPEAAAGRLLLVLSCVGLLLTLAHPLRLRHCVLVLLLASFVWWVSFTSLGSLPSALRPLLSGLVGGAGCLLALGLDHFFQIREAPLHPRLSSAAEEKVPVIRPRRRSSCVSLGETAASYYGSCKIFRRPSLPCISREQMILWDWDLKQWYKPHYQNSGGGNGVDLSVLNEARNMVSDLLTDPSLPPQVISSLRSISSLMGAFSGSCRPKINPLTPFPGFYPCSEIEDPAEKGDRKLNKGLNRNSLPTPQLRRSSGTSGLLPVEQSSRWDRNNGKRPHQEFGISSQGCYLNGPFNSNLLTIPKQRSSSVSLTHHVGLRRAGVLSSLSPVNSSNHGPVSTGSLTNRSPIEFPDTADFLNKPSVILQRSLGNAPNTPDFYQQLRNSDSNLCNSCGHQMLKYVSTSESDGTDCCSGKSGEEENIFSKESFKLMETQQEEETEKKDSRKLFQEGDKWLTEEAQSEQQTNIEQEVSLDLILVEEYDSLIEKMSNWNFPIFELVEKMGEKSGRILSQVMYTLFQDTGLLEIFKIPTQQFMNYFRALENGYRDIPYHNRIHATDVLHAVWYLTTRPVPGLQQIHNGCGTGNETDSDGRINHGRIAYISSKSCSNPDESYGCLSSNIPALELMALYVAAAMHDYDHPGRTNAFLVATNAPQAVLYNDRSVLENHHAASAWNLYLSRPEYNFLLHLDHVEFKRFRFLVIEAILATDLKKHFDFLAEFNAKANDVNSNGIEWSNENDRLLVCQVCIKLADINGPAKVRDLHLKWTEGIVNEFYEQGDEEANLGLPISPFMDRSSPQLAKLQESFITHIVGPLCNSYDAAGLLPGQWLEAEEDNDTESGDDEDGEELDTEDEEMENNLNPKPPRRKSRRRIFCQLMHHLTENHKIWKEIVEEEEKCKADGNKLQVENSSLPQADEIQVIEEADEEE
Sequence of Procathepsin L (P07711 whole entry): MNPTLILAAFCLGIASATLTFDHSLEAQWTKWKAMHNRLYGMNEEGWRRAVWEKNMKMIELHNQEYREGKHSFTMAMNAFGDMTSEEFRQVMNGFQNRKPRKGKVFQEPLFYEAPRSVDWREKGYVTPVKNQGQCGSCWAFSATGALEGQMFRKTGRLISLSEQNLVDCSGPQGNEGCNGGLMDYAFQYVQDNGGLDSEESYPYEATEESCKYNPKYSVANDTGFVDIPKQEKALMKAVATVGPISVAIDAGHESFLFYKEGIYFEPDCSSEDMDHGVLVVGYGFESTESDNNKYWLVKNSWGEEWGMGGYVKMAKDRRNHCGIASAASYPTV

As for `CC(C)(C)NC(=O)[C@@H]1C[C@@H]2CCCC[C@@H]2CN1C[C@@H](O)[C@H](Cc1ccccc1)NC(=O)OC1CCCC1`, the IC50 (commonly the concentration at which inhibition is half-maximal) against Protease was determined as 160 nM.

For `O=C(COc1ccccc1)N[C@@H](Cc1ccccc1)C(=O)O[C@H]1CCOC1`, on Procathepsin L, the EC50 – broadly, the concentration at which the effect is half-maximal – was found to be 6000 nM. As to `CCc1ccc2c(c1)C(c1ccc(OCCN3CCOCC3)cc1)Cc1cc(O)cc(C)c1-2` (centres undefined), the IC50 was found to be 190 nM at Estrogen receptor beta and 9 nM on Estrogen receptor.

In the case of `FC(F)(F)c1ccc(OC(CCNCc2ccccn2)c2ccccc2)cc1` (centres undefined), in test [1], the IC50 came to 50 nM. As to `O=C(O)CCCOc1cccc(CNC(=O)C#Cc2cn(Cc3ccc(C(=O)O)cc3)c(=O)[nH]c2=O)c1`, on Collagenase 3, the IC50 was found to be 6 nM. For the compound `O=C1CCC(c2ccc(NC(=O)Cc3cccnc3)cc2)=NN1`, in test [2], the EC50 amounted to 6000 nM. Take `Cc1ccc(-c2ncn(CC3CC3)c2-c2ccncc2)cc1`: at MAP kinase p38, the IC50 is given as 160 nM.

With `O=C(Nc1ccccn1)Nc1cccc2c1-c1ccccc1C2=O`, in [3], the IC50 was found to be 100 nM.
